Experimental data: US7772237B2, “Thio-substituted tricyclic and bicyclic aromatic methanesulfinyl derivatives” (Cephalon France, priority 2004, dated 2010)

Test system: male Wistar rats
Assay: Evaluation of wake promoting activity in rats (EEG/EMG sleep/wake scoring)
Format: in vivo, rat
Details: i.p., 100 mg/kg, p<0.05 vs control groups
Procedure: Biological Data Methodology: Evaluation of Wake Promoting Activity in Rats
The methodology utilized for evaluating wake promoting activity of test compounds is based on that described by Edgar and Seidel, Journal of Pharmacology and Experimental Therapeutics, 283:757-769, 1997, and incorporated herein in its entirety by reference.
Animal Surgery. Adult, male Wistar rats (275-320 g from Charles River Laboratories, Wilmington, Mass.) were anesthetized (Nembutal, 45 mg/kg, ip.) and surgically prepared with implants for recording of chronic EEG (encephalographic) and EMG (electromyographic) recording. The EEG implants were made from commercially available components (Plastics One, Roanoke, Va.). EEG signals were recorded from stainless steel screw electrodes: 2 frontal (+3.0 mm AP from bregma, ±2.0 mm ML), and 2 occipital (−4.0 mm AP from bregma, ±2.0 mm ML). Two Teflon-coated stainless steel wires were positioned under the nuchal trapezoid muscles for EMG recording. […]
Data acquisition. […] On the day of dosing, data was recorded for 6 to 10 hours beginning at 11 AM.
(i) Drug administration and study design. Compounds were evaluated on groups of from 4 to 8 rats carried out over one or two separate test sessions. […]
Sleep/wake scoring. Sleep and wake activity were determined manually using ICELUS software. […]

CC(C)(C)OC(=O)N1CCN(C(=O)CSCc2ccc3oc4ccc(F)cc4c3c2)CC1 [Example 26, 4-[2-(8-fluorodibenzofuran-2-yl-methylsulfanyl)acetyl]-piperazine-1-carboxylic acid tert-butyl ester]
wakefulness compared to vehicle-treated animals: significantly greated wakefulness
